Reference: ChEMBL document CHEMBL1201862, “PubChem BioAssay data set” (2004)
The source made the active and inactive calls.

How the values were obtained:
Hexokinase HKDC1 = molecular target: T1, Hexokinase HKDC1 (Homo sapiens, UniProt Q2TB90); assay: inhibition of HKDC1 glucose phosphorylation – biochemical, W721R variant, dose response (AID 504729); assay type: functional
T1 sequence (Q2TB90 whole entry): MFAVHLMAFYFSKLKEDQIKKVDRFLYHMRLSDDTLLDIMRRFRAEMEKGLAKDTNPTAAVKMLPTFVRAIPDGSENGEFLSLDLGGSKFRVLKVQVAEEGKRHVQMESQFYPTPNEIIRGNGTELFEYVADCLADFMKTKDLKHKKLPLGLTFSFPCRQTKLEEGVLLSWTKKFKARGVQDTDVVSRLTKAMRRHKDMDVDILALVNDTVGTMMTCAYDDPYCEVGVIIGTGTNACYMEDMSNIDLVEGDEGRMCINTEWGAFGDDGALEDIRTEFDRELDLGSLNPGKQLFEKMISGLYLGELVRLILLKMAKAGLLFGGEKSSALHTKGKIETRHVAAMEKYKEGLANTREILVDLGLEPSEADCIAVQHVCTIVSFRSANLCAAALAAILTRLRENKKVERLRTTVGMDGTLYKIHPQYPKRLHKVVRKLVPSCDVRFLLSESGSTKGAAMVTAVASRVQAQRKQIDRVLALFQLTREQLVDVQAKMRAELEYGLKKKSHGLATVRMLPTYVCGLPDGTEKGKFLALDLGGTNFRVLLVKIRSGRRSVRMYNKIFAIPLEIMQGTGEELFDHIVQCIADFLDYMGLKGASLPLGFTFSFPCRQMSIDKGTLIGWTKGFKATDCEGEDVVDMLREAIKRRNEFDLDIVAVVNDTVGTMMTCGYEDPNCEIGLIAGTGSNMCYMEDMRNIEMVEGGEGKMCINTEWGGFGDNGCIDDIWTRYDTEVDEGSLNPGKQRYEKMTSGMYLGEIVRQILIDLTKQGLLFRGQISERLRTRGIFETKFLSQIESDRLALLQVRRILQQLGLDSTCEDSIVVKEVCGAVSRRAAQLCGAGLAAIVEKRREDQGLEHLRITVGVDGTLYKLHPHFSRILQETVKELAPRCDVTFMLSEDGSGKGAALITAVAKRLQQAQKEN

Paired box protein Pax-8 = Paired box protein Pax-8 (Homo sapiens, UniProt Q06710); assay: PAX8 transcriptional activity inhibition in RMG-I – RMG-I cells, luciferase, cherry-pick, dose response (AID 687027); assay type: functional, cell-based;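 also: luciferase reporter driven by Pax8 target thyroperoxidase promoter measured by SteadyGlo luminescence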
[1] = general cell-killing toxicity readout – plate reader, dry powder samples, cytotoxicity control for PAX8 inhibitor project, dose response (AID 743021); assay type: functional, cell-based
[2] = NIH-3T3 fibroblast cytotoxicity, dose response, cytotoxicity control, cell-based, fluorescence, Alamar Blue, secondary assay (AID 2327); assay type: functional;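 also: NIH-3T3 mouse fibroblasts cultured with fluconazole at 8 µg/mL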
cells = assay type: functional, cell-based
[3] = fluconazole-exposed Candida albicans growth modulators – fluorescence, retest, confirmation (AID 2467); assay type: functional, cell-based
[4] = Luminescence-based dose response cell-based high throughput screening assay for cytotoxic compounds using the IEC-6 intestinal epithelial cell line. [Related pubchem assays: 1858 (Summary AID.), 1825 (Counterscreen.), 1907 (Confirmation screen.)]; assay type: functional
[5] = non-specific 3'UTR reporter inhibition in Clone20-Shn3RL – cell-based, Renilla luciferase, cherry-picked, counter-screen for Shn3 inhibitor project, dose response (AID 624133); assay type: functional
[6] = molecular target: Ribosomal protein S6 kinase alpha-3 (Homo sapiens, UniProt P51812); assay type: functional;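 also: measured within a kinome-wide profiling panel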
[7] = molecular target: Dual specificity protein kinase CLK2 (Homo sapiens, UniProt P49760); assay type: functional
Dual specificity protein kinase CLK2, sequence (P49760 whole entry): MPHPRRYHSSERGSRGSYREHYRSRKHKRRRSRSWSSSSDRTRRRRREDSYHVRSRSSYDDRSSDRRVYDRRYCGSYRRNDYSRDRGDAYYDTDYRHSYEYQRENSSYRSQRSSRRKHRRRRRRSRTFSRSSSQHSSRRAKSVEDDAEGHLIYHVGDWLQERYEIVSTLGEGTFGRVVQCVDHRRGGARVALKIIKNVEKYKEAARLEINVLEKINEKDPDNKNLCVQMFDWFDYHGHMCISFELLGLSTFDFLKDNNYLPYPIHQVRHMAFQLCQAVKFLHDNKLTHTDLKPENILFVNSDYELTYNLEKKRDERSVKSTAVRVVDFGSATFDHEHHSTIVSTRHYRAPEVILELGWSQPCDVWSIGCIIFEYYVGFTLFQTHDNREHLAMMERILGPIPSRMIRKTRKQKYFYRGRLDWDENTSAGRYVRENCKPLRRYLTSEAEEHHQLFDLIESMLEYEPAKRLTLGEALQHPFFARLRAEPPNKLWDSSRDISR

[8] = molecular target: Serine/threonine-protein kinase TBK1 (Homo sapiens, UniProt Q9UHD2); assay: Navigating the Kinome. Panel member name: TBK1; assay type: functional
[9] = molecular target: 5'-AMP-activated protein kinase catalytic subunit alpha-1 (Homo sapiens, UniProt Q13131); assay type: functional
[10] = molecular target: ALK tyrosine kinase receptor (Homo sapiens, UniProt Q9UM73); assay type: functional;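 also: ALK tested as one member of a kinase panel screen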
[11] = molecular target: Tyrosine-protein kinase receptor TYRO3 (Homo sapiens, UniProt Q06418); assay type: functional;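 also: TYRO3 value obtained as one member of a kinome-wide profiling panel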
Tyrosine-protein kinase receptor TYRO3, sequence (Q06418 whole entry): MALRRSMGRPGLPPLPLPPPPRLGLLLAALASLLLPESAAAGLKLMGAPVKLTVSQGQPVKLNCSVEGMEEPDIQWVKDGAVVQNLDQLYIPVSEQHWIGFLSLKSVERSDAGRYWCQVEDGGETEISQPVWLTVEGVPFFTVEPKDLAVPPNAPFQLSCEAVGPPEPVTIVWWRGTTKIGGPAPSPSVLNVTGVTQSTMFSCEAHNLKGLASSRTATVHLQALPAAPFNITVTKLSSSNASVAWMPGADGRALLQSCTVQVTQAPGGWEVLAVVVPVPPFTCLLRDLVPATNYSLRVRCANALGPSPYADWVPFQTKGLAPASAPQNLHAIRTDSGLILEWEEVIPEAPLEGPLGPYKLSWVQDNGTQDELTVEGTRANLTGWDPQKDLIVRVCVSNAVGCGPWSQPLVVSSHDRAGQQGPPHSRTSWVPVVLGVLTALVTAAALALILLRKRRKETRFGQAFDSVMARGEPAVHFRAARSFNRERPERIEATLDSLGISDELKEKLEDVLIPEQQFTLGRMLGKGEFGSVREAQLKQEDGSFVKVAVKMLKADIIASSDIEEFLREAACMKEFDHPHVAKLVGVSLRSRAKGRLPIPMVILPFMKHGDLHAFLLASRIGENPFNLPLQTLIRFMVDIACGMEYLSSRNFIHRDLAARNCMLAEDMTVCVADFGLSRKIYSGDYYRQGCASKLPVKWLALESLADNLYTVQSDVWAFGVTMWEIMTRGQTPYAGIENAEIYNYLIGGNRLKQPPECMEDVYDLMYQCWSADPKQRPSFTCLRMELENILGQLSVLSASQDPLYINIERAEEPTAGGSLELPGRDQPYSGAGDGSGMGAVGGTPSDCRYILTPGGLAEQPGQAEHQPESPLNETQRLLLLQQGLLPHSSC

[12] = molecular target: Tyrosine-protein kinase Lck (Homo sapiens, UniProt P06239); assay type: functional;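 also: lck was assayed as one member of a kinase panel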
Tyrosine-protein kinase Lck, sequence (P06239 whole entry): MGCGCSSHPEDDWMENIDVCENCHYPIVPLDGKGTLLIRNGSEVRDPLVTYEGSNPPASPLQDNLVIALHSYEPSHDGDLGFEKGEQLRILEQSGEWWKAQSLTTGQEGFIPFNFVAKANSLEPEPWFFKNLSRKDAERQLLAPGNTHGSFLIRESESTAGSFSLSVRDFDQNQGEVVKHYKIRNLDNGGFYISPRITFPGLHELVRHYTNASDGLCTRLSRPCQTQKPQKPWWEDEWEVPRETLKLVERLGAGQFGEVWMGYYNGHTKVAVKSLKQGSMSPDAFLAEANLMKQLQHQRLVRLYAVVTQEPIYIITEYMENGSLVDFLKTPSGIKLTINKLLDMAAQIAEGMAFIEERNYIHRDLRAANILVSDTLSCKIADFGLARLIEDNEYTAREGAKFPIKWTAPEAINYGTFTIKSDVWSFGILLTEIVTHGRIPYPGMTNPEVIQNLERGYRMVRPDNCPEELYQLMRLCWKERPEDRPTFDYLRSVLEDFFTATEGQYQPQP

[13] = molecular target: Death-associated protein kinase 3 (Homo sapiens, UniProt O43293); assay type: functional;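 also: measured as one member of a kinome-wide profiling panel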
[14] = molecular target: Mitogen-activated protein kinase 8 (Homo sapiens, UniProt P45983); assay type: functional;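 also: value comes from one member of a kinome-wide kinase profiling panel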
Mitogen-activated protein kinase 8, sequence (P45983 whole entry): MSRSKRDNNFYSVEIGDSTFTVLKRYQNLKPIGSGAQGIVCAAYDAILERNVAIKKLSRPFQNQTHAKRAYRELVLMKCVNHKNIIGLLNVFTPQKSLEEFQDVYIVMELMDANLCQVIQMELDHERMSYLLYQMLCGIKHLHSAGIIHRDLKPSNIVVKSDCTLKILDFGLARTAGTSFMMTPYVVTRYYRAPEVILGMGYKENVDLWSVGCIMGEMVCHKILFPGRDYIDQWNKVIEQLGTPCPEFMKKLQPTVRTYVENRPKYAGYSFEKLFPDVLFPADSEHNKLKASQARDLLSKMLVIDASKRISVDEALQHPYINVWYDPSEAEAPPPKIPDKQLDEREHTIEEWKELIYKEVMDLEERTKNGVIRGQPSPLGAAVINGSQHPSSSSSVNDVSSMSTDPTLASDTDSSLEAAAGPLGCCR

[15] = molecular target: Mast/stem cell growth factor receptor Kit (Homo sapiens, UniProt P10721); assay type: functional;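 also: KIT entry within a kinase panel assay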
[16] = molecular target: Fibroblast growth factor receptor 1 (Homo sapiens, UniProt P11362); assay type: functional
[17] = molecular target: Tyrosine-protein kinase JAK3 (Homo sapiens, UniProt P52333); assay type: functional
[18] = molecular target: Mitogen-activated protein kinase 9 (Homo sapiens, UniProt P45984); assay type: functional;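 also: value from a kinome panel profiling assay, MAPK9 panel entry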
[19] = molecular target: Receptor-type tyrosine-protein kinase FLT3 (Homo sapiens, UniProt P36888); assay type: functional;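 also: FLT3 was tested as one member of a kinome-wide kinase panel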
Focal adhesion kinase 1 = Focal adhesion kinase 1 (Homo sapiens, UniProt Q05397); assay type: functional;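 also: measured as one member of a kinome panel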
[20] = molecular target: Platelet-derived growth factor receptor alpha (Homo sapiens, UniProt P16234); assay: Navigating the Kinome. Panel member name: PDGFRA; assay type: functional
Platelet-derived growth factor receptor alpha, sequence (P16234 whole entry): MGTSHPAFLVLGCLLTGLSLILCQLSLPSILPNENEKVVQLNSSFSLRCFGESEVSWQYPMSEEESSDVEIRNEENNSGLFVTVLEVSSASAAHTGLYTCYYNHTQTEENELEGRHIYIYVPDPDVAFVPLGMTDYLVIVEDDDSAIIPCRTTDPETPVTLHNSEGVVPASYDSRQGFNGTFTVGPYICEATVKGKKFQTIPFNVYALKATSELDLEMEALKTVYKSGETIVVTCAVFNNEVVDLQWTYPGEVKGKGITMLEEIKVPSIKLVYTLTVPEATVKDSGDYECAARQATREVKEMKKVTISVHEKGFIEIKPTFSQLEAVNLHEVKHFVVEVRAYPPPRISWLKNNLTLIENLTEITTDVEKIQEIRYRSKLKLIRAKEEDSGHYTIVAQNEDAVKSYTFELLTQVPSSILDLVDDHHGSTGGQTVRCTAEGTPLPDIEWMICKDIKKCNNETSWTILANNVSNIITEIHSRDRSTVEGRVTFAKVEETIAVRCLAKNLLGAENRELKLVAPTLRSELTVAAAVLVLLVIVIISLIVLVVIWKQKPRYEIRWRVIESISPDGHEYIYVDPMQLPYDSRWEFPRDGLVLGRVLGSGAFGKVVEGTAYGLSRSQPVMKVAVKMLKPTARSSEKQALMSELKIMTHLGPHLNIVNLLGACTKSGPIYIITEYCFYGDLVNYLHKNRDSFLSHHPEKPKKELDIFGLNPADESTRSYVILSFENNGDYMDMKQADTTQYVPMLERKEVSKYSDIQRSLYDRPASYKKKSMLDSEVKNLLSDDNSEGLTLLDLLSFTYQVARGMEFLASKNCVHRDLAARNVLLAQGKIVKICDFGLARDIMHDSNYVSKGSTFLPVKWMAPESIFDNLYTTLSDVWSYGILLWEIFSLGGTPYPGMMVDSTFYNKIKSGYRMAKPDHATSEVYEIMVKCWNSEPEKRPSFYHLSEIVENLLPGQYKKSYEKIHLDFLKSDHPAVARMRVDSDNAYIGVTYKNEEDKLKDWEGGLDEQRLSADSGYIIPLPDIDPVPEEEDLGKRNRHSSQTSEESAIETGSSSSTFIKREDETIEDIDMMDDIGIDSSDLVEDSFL

[21] = molecular target: Cyclin-dependent kinase 9 (Homo sapiens, UniProt P50750); assay type: functional;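 also: value from the CDK9 entry of a kinome-spanning kinase panel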
[22] = molecular target: BDNF/NT-3 growth factors receptor (Homo sapiens, UniProt Q16620); assay type: functional;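 also: NTRK2 measured as one member of a broad kinome-wide kinase profiling panel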
BDNF/NT-3 growth factors receptor, sequence (Q16620 whole entry): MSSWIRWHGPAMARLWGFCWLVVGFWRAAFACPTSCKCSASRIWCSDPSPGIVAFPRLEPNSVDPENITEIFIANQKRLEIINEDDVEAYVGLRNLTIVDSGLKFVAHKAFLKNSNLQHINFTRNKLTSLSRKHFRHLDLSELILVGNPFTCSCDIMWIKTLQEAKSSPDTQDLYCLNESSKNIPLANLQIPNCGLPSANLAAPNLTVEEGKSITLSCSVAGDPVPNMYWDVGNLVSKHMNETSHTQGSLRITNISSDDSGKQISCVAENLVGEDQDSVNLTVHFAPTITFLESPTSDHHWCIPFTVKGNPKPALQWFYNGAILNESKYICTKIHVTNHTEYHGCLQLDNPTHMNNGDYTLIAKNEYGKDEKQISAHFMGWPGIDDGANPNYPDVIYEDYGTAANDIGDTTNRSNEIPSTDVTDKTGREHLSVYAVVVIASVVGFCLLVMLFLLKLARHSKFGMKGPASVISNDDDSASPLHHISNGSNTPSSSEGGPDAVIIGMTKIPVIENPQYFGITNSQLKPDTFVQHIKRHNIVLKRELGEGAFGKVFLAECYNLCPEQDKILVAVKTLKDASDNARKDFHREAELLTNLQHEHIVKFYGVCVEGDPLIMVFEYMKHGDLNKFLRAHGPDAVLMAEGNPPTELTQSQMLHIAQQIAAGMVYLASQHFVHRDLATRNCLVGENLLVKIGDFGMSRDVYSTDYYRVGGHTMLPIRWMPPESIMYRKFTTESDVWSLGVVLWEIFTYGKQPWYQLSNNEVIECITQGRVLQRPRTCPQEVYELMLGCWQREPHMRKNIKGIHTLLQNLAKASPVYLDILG

[23] = molecular target: Dual specificity protein kinase CLK4 (Homo sapiens, UniProt Q9HAZ1); assay type: functional
Dual specificity protein kinase CLK4, sequence (Q9HAZ1 whole entry): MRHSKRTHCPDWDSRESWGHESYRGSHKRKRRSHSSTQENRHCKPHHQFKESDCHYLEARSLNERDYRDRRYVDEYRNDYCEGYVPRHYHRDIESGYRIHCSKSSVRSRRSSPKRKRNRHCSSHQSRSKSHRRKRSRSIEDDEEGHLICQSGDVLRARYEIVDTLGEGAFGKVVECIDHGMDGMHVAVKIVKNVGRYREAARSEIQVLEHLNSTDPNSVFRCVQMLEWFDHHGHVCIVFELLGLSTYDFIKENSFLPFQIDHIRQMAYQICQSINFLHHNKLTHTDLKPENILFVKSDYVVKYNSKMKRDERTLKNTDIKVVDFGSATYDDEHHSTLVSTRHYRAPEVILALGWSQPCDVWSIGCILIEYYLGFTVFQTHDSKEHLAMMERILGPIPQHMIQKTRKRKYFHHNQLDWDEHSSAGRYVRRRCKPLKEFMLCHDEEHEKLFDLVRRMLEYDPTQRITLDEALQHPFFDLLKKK

[24] = molecular target: Dual specificity tyrosine-phosphorylation-regulated kinase 1A (Homo sapiens, UniProt Q13627); assay type: functional;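 also: measured against DYRK1A as one member of a broad kinome profiling panel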
[25] = molecular target: Calcium/calmodulin-dependent protein kinase type II subunit alpha (Homo sapiens, UniProt Q9UQM7); assay: Navigating the Kinome. Panel member name: CAMK2A; assay type: functional
[26] = molecular target: Leukocyte tyrosine kinase receptor (Homo sapiens, UniProt P29376); assay: Navigating the Kinome. Panel member name: LTK; assay type: functional

O=C(NC1=C(NC2CCS(=O)(=O)C2)C(=O)c2ccccc2C1=O)c1ccccc1 (stereo not given)
active: IC50 (Hexokinase HKDC1) 5.14 µM | AC50 (Paired box protein Pax-8) 6.4 µM | AC50 [1] 36.5 µM

CCCC(=O)NC(c1ccc(N(C)C)cc1)c1ccc2cccnc2c1O (stereo not given)
active: EC50 (cells) 4.76 µM | EC50 [3] 0.626 µM | IC50 [4] 1.55 µM | AC50 [5] 0.745 µM
inconclusive: EC50 [2] 22.9 µM

O=C1NC(=O)C(c2c[nH]c3ccccc23)=C1c1nc(N2CCNCC2)nc2ccccc12
inactive: Ki [7] > 2.51 µM | Ki [8] > 3.16 µM | Ki [11] > 2 µM | Ki [12] > 6.31 µM | Ki [14] > 5.01 µM | Ki [15] > 6.31 µM | Ki [16] > 2.51 µM | Ki [18] > 3.98 µM | Ki [19] > 3.16 µM | Ki [20] > 2.51 µM | Ki [22] > 3.98 µM | Ki [23] > 1.58 µM | Ki [24] > 2 µM
active: Ki [6] 0.0501 µM | Ki [9] 0.2 µM | Ki [10] 3.98 µM | Ki [13] 0.631 µM | Ki [17] 1.26 µM | Ki (Focal adhesion kinase 1) 2 µM | Ki [21] 0.316 µM | Ki [25] 0.501 µM | Ki [26] 0.794 µM
